Measured values reported in patent US20170096492A1, “DOSAGE AND ADMINISTRATION OF ANTI-IGF-1R, ANTI-ErbB3 BISPECIFIC ANTIBODIES, USES THEREOF AND METHODS OF TREATMENT [sequence]” (Merrimack Pharmaceuticals, Inc., priority 2014, published 2017).
“Also recorded” adds a separate entry of the source.

Tests used:
[1] = Phase 1 PK analysis of serum MM-141 (ELISA, non-compartmental); type: in vivo, human; conditions: range
Procedure: (§1) Serum for PK and PD analysis was prepared by drawing whole blood into red top tubes, clotting 30 minutes at 4-8° C. and spinning down in a refrigerated centrifuge. Serum was aliquotted and frozen immediately after centrifugation. PD analysis of total IGF-1 in serum was performed using Human IGF-I Quantikine® ELISA Kit (R&D Systems, Minneapolis, Minn.) according to the manufacturer's instructions. For the PK analysis, in brief, ELISA plates were plates were coated with IGF-1R (R&D Systems) in PBS and incubated overnight at 4° C. Plates were washed, blocked, and then samples and standards were added to plates and incubated for 2 hr at room temperature. Plates were washed and ErbB3-His was added for 1 hr at room temperature. Plates were washed and anti-His-HRP (Abeam, Cambridge, Mass.) was added for 1 hr at room temperature. Plates were developed using TMB and STOP solution and absorbance was read at 450 nm. PK parameters were analyzed using descriptive statistics including the median, mean and 95% confidence intervals around parameter estimates by dose level. All PK parameters included Cmax, Tmax, AUC (area under the concentration curve), clearance, volume of distribution at steady state (Vdss), and the terminal elimination half-life. Estimation of the PK parameters was performed using standard non-compartmental methods.

[2] = tested on: total IGF-1 in serum; assay: Phase 1 PD analysis of total IGF-1 in serum (Quantikine ELISA); type: in vivo, human
Procedure: as §1

[3] = tested on: hepatocellular carcinoma tumor biopsies; assay: Immunohistochemistry of pre- and post-treatment tumor biopsies (cohort 4D); type: in vivo, human; conditions: post- vs pre-treatment, MM-141 20 mg/kg weekly, sorafenib-refractory HCC
Source text: Formalin fixed, paraffin embedded biopsy samples were sectioned at 5 μm, processed and stained for IGF-1R (G11 clone detection antibody, Ventana) and ErbB3 (clone D22 antibody, Cell Signaling Technology).

[4] = tested on: CAKI-1 xenografts; assay: CAKI-1 xenograft PD, western blot; type: in vivo, mice
Procedure: For the PD study results shown in FIGS. 3A-B and FIGS. 5A-C, NOD/SCID female mice were inoculated with 12×10^6 CAKI-1 or 10×10^6 SK-ES-1 cells, respectively, in 1:1 Matrigel® suspension. […] Tumors were harvested 24 hours after the second dose of drug; lysates were generated and subjected to western blot analysis.

[5] = tested on: BxPC-3 pancreatic cancer cells; assay: CTG cell viability, paclitaxel with IGF-1 or HRG, three-dimensional cultures; type: cell-based, human
Procedure: The cell viability assay (FIGS. 7A-B and 8A-B) was carried out using a CellTiter-Glo® (CTG) assay (Promega), which determines the number of viable cells in a culture based on quantitation of the ATP present. In FIGS. 7A-B, BxPC-3 cells were grown in low serum alone or with exogenous IGF-1 or HRG added (0-50 nM). […] For the cell viability assays described in FIGS. 8(A-B), (FIG. 8A) BxPC-3 and (FIG. 8B) CFPAC-1 cells were cultured in low (2%) serum alone or with a combination of IGF-1 (50 nM) and HRG (10 nM).

[6] = tested on: BxPC-3 cells; assay: Cellular proliferation assay in low serum with or without IGF-1 or HRG; type: cell-based, human; conditions: for inhibition of cell growth: low (2%) serum
[7] = tested on: CFPAC-1 pancreatic cancer cells; assay: Total ErbB3 and total IGF-1R ELISA (Example 20); type: cell-based, human; conditions: 50 nM, relative to vehicle control
Procedure: CFPAC-1 pancreatic cancer cells were seeded at 65% confluence in 10% serum-containing medium and incubated in 96-well plates overnight. […] After treatment, cells were harvested and protein lysates generated. Changes in ErbB3 and IGF-1R levels across all treatments were evaluated by total ErbB3 or total IGF-1R ELISA, respectively.

[8] = tested on: IGF-1R and ErbB3 receptors; assay: Receptor expression ELISA versus monospecific antibodies (Example 31); type: cell-based; conditions: 50 nM, four hours post-treatment, compared with monospecific antibodies
Procedure: Cell lysates were harvested four hours post-treatment with antibodies as indicated in FIGS. 33A and 33B (50 nM of each antibody) and changes in receptor expression were measured by ELISA. All ELISA measurements are normalized to vehicle (PBS) treatment, and these measurements are expressed relative to a vehicle treated control value of 1.

[9] = tested on: CFPAC-1 pancreatic cancer cells; assay: pAKT (Ser473) ELISA after chemotherapy and ligand stimulation; type: cell-based, human; conditions: 24 hours
Procedure: (§2) CFPAC-1 pancreatic cancer cells were seeded at 65% confluence in 10% serum-containing medium on 96-well plates overnight. […] Following incubation, cells were treated with (FIG. 24A) HRG (5 nM) or (FIG. 24B) IGF-1 (50 nM) for 15 minutes, where indicated. After treatment, cells were harvested and protein lysates generated. Changes in pAKT (Ser473) levels across all treatments were evaluated by pAKT ELISA, respectively. FIGS. 24(A-B) are bar graphs showing pAKT levels relative to ligand alone stimulated signals, which were normalized to 1.
as §2, with “25A)” for “24A)”, “25B)” for “24B)”, “25(A-B)” for “24(A-B)”

[10] = single agent, MM-141 30 mpk i.p. or everolimus 10 mpk orally, 2 doses, tumors harvested 24 hours after second dose
[11] = MM-141 500 nM added to paclitaxel 50 nM

**Q.** For “MM-141: polyvalent bispecific antibody P4-G1-M1.3, anti-IGF-1R and anti-ErbB3; heavy chain SEQ ID NO: 3, light chain SEQ ID NO: 4”, which Half-lives ([1]; 6 mg/kg q7d) is on record?
**A.** Its Half-lives is 2.4 to 6.3 days.

**Q.** What about the Half-lives ([1]; 12 mg/kg q7d) of the same substance?
**A.** Its Half-lives is 2.1 to 2.9 days.

**Q.** And the Half-lives ([1]; 20 mg/kg q7d)?
**A.** The Half-lives was 3.3 to 3.4 days.

**Q.** What about the Half-lives ([1]; 40 mg/kg q14d) of the same substance?
**A.** Its Half-lives is 3.2 to 9.9 days.

**Q.** And the “increase in serum total IGF-1” value ([2]; 6 mg/kg cohort)?
**A.** Its value is “approximately two-fold in 1/3 patient samples”.

**Q.** And the “increase in serum total IGF-1” value ([2]; 12 mg/kg cohort)?
**A.** The value was “approximately two-fold in 1/3 patient samples”.

**Q.** And the “increase in serum total IGF-1” value ([2]; 20 mg/kg, all patient samples)?
**A.** The value was “approximately a two-fold increase”.

**Q.** What about the “increase in serum total IGF-1” value ([2]; 40 mg/kg, all patient samples) of the same substance?
**A.** Its value is “approximately two to four fold increases”.

**Q.** And the “ErbB3 level in tumor biopsy” value [3]?
**A.** The value was “decreased; also recorded: Down-regulation”.

**Q.** And the “IGF-1R level in tumor biopsy” value [3]?
**A.** Its value is “decreased; also recorded: Down-regulation”.

**Q.** And the “everolimus-induced upregulation of IGF-1R and ErbB2 (resistance mechanism)” value ([4]; MM-141 30 mpk i.p. co-administered with everolimus 10 mpk orally)?
**A.** Its value is “resistance mechanism was inhibited”.

**Q.** And the “total ErbB2” value [4, 10]?
**A.** The value was “down regulation”.

**Q.** And the “total IGF-1R” value [4, 10]?
**A.** The value was “down regulation”.

**Q.** What about the “sensitivity to cytotoxic properties of paclitaxel in a high IGF-1 setting” value [5, 11] of the same substance?
**A.** Its value is “re-sensitize cells”.

**Q.** And the “sensitivity to cytotoxic properties of paclitaxel in the presence of high HRG” value [5, 11]?
**A.** Its value is “re-sensitize cells”.

**Q.** What about the “resistance to cytotoxic effect of paclitaxel caused by IGF-1 or heregulin” value ([5]; paclitaxel 50 nM, IGF-1 or HRG 0-50 nM, MM-141 500 nM) of the same substance?
**A.** The value was “resistance was reversed”.

**Q.** And the “inhibition of cell growth, greater than in the absence of ligand” value ([6]; in presence of HRG)?
**A.** The value was “approximately 50%”.

**Q.** What about the “inhibition of cell growth” value ([6]; IGF-1 added to the media) of the same substance?
**A.** The value was “maximal activity”.

**Q.** And the “inhibition of cell growth” value ([6]; absence of exogenous ligand)?
**A.** Its value is “unable to inhibit cell growth”.

**Q.** And the “total ErbB3 protein level” value [7]?
**A.** Its value is “potently down-regulates”.

**Q.** And the “total IGF-1R protein level” value [7]?
**A.** The value was “potently down-regulates”.

**Q.** And the “decrease of ErbB3 expression level” value [8]?
**A.** The value was “to a greater extent”.

**Q.** What about the “decrease of IGF-1R expression level” value [8] of the same substance?
**A.** Its value is “to a greater extent”.

**Q.** What about the “gemcitabine-induced increased sensitivity to HRG and IGF-1, pAKT (Ser473)” value ([9]; MM-141 500 nM with gemcitabine 1 μM) of the same substance?
**A.** Its value is “this effect is blocked”.

**Q.** And the “paclitaxel-induced increased sensitivity to IGF-1, pAKT (Ser473)” value ([9]; MM-141 500 nM with paclitaxel 100 nM)?
**A.** Its value is “this effect is blocked”.
